Measured values reported in patent US20160166676A1 (priority 2013, published 2016).

Tests used:
[1] = biological target: STING deletion mutant DN5 (162-N) (Homo sapiens, UniProt Q86WV6); format: binding
CTLL-2 cells = format: cell-based

STING deletion mutant DN5 (162-N), sequence (Q86WV6 162-379, stated change not applied): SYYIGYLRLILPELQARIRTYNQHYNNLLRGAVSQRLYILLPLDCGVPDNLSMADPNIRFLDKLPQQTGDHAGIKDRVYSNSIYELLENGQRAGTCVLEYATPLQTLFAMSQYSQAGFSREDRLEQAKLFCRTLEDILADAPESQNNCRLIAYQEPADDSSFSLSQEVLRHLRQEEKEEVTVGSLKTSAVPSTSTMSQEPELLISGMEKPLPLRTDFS

## GLFGAIAGFIENGWEGCGGEKEKEK [IN F#2 dimer]
[1]
  pulldown of STING deletion mutant DN5 (162-N) by biotinylated peptide: readily pulled down
CTLL-2 cells
  proliferation of CTLL-2 cells: inhibits the proliferation of CTLL-2 cells
